Data taken from patent US8293979B2, “Weed controller metabolism proteins, genes, thereof and use of the same” (Sumitomo Chemical Company, Limited, priority 2001, dated 2012).

Tests used:
Barnyardgrass = test: Herbicidal activity test, foliage treatment; type: in vivo, Echinochloa crus-galli; parameters: key: 0: situations in which the condition of sprouting or vegetation at the time of examination of the plant utilized for the test was compared with and showed totally or substantially no difference with that of the untreated application; 10: situations in which the plant completely withered or the sprouting or vegetation was completely suppressed; details: sprayed onto the foliage of plants cultivated 10 days, investigated after 16 days in a greenhouse
Procedure: Soil was packed into a round plastic pot having a diameter of 10 cm and depth of 10 cm. Barnyardgrass, Blackgrass, Ivyleaf morningglory were seeded and cultivated in a greenhouse for 10 days. Five (5) parts of the test compound, 6 parts of sorpol3005X (Toho Chemical Company) and 89 parts of xylene were well mixed to produce an emulsion. A certain amount thereof was diluted with water containing 0.1% (v/v) of a sticking agent at a proportion of 1000 L for 1 hectare and was spread uniformly with a spray-gun onto the all sides of the foliage from above the plant cultivated in the above pot. After cultivating the plants for 16 days in a greenhouse, the herbicidal activity of the test compound was investigated.
In the above Tables 3 and 4, the strength of the herbicidal activity is shown stepwise as 0, 1, 2, 3, 4, 5, 6, 7, 8, 9, and 10.

[1] = tested on: leaf pieces derived from the tobacco to which the present invention DNA (A2) was introduced; test: Herbicidal damage of tobacco leaf pieces on MS agar medium containing compound (II); type: cell-based; details: MS agar medium containing 0.1 mg/L of compound (II), in the light at room temperature, 7th day of culturing
Text: Leaf pieces of sterily cultured tobacco were infected with each of the agrobacterium strain bearing pBI-NdG6-rSt-923 and the agrobacterium strain bearing pBI-NdG6-rSt12-923. Tobaccos in which the present invention DNA (A2) has been introduced were obtained under the procedures similar to the methods described in Example 19.
Three (3) leaves were taken from the obtained transgenic tobacco. Each leaf was divided into 4 pieces in which each piece was 5 to 7 mm wide. Each of the leaf pieces were planted onto MS agar medium containing 0.1 mg/L of compound (II) and cultured in the light at room temperature. On the 7th day of culturing, the herbicidal damage of each of the leaf pieces was observed.

[2] = tested on: present invention protein (A11); test: Detection of the ability to convert compound (II) to compound (III), E. coli pKSN849AF extract; type: in vitro ADME, Streptomyces nogalator IFO13445; details: 3 ppm of compound (II) labeled with 14C, components A, B, 10 minutes at 30° C.
Procedure: Reaction solutions of 30 μl were prepared and maintained for 1 hour at 30° C. The reaction solutions consisted of a 0.1M potassium phosphate buffer (pH7.0) containing 3 ppm of compound (II) labeled with ^14C, 2 mM of β-NADPH (hereinafter, referred to as “component A”) (Oriental Yeast Company), 0.2 mg/ml of a ferredoxin derived from spinach (hereinafter referred to as “component B”) (Sigma Company), 1 U/ml of ferredoxin reductase (hereinafter, referred to as “component C”) (Sigma Company) and 18 μl of the supernatant fraction recovered in Example 4(2). Further, there were prepared and maintained similarly reaction solutions having no addition of at least one component utilized in the composition of the above reaction solution, selected from component A, component B and component C. […] Next, the imaging plate was analyzed on Image Analyzer BAS2000 (Fuji Film Company). […]
(§1) Reaction solutions of 30 μl were prepared and maintained for 10 minutes at 30° C. […] Similarly to Example 4(3), the reaction solutions after the maintenance were extracted with ethyl acetate and the extracted layers were TLC analyzed. […] A spot corresponding to compound (III) was detected from the reaction solution containing E. coli pKSN849AF extract. In contrast, such a spot was not detected from the reaction solution containing E. coli pKSN2 extract.

[3] = tested on: present invention protein (A14); test: Detection of the ability to convert compound (II) to compound (III), E. coli pKSN1491AF extract; type: in vitro ADME, Streptomyces glomerochromogenes IFO 13673t; details: 3 ppm of compound (II) labeled with 14C, components A, B, 10 minutes at 30° C.
Procedure: (§2) Reaction solutions of 30 μl were prepared and maintained for 10 minutes at 30° C. The reaction solutions consisted of a 0.1M potassium phosphate buffer (pH7.0) containing 3 ppm of compound (II) labeled with ^14C, 2 mM of β-NADPH (hereinafter, referred to as “component A”) (Oriental Yeast Company), 2 mg/ml of a ferredoxin derived from spinach (hereinafter referred to as “component B”) (Sigma Company), 0.1 U/ml of ferredoxin reductase (hereinafter, referred to as “component C”) (Sigma Company) and 23 μl of the supernatant fraction recovered in Example 32(2). Similarly to Example 4(3), the reaction solutions after the maintenance were extracted with ethyl acetate and the extracted layers were TLC analyzed. […] A spot corresponding to compound (III) was detected from the reaction solution containing E. coli pKSN849AF extract. In contrast, such a spot was not detected from the reaction solution containing E. coli pKSN2 extract.
as §1, with “The” for “Similarly to Example 4(3), the”, “pKSN1491AF” for “pKSN849AF”

[4] = tested on: present invention protein (A21); test: Detection of the ability to convert compound (II) to compound (III), E. coli pKSN1543BF extract; type: in vitro ADME, Streptomyces misawanensis IFO 13855T; details: 3 ppm of compound (II) labeled with 14C, components A, B, 10 minutes at 30° C.
Procedure: as §2
as §1, with “Similarly to Example 32(3), reaction” for “Reaction”, “The” for “Similarly to Example 4(3), the”, “pKSN1543BF” for “pKSN849AF”

C[C@@H](Oc1cc(-n2c(=O)cc(C(F)(F)F)n(C)c2=O)c(F)cc1Cl)C(=O)O [compound (II)]
Herbicidal Activity Barnyardgrass (Barnyardgrass; 125 g/ha): 10 | Herbicidal Activity Barnyardgrass (Barnyardgrass; 500 g/ha): 10 | herbicidal damage of the leaf pieces [1]: grew continuously | spot corresponding to compound (III) labeled with 14C (TLC) [2]: detected | spot corresponding to compound (III) labeled with 14C (TLC) [3]: detected | spot corresponding to compound (III) labeled with 14C (TLC) [4]: detected
